{"source": "patent US20170182070A1", "about": "“Controlled Release Doxycycline” (Mayne Pharma International Pty Ltd., priority 2014, published 2017)", "key": {"[1]": {"test": "In vitro dissolution/release profile, USP <711> Apparatus 1 (baskets)", "format": "physicochemical", "method": "For the purposes of in vitro testing, a release or dissolution profile may be determined at pH 1.2 using a 0.06 N hydrochloric acid solution, at pH 4.5 using a phosphate buffer using USP <711> test conditions, and at pH 5.0 using a buffer using USP <711> test conditions. Such test conditions can be carried out according to USP <711> dissolution conditions using Apparatus 1 (baskets) in 900 mL of media with stirring at 50 RPM. The in vitro release of the pellets was tested using USP XXIV 2000—Apparatus 1 (baskets). See, e.g., Riaz Uddin, Nadia Saffoon, and Kumar Bishwajit Sutradhar, “Dissolution and Dissolution Apparatus: A Review,” Int. J. Cur. Biomed. Phar. Res., 2011, Vol. 1(4), pgs. 201-207. The acid environment dissolution profile of pellet A and B's formulation can be seen in FIG. 1. The dissolution profile of pellet A and B formulations at elevated pH can be seen in FIG. 2."}, "[2]": {"test": "Physicochemical properties of doxycycline forms"}, "[3]": {"test": "Population pharmacokinetic model of doxycycline plasma concentrations, pooled phase 1 data (Example 8)", "format": "in vivo, human", "method": "Pharmacokinetic data were available from eight phase 1 clinical trials conducted by Mayne Pharma International. These studies assessed doxycycline plasma concentrations following oral administration of either a 100 mg conventional release doxycycline hyclate capsule, a 75/100/150 or 200 mg Doryx® Delayed-Release tablet or a 120 mg Doryx MPC® Delayed-Release tablet in healthy subjects. For the remainder of the Specification's Example 8, conventional release doxycycline hyclate capsules will be referred to as Doryx capsules, the Doryx® Delayed-Release tablets will be referred to as Doryx tablets, and Doryx MPC® Delayed-Release tablets (formulation code MP336) will be referred to as Doryx MPC.\nThe available phase 1 clinical trials included six single dose two treatment period studies assessing the influence of formulation or the fed/fasted state on doxycycline concentrations. Two trials were multi-dose studies; with one a single treatment period study and the other a two treatment period study assessing doxycycline plasma concentrations following Doryx capsule or Doryx tablet administration. All studies were conducted in the United States. […] The design and dosing schedules are summarized in […].3. The available studies were assigned a local identifier during model development (10, 20, 30, 40, 50, 60, 70, and 80), as indicated in […].3, and will be referred to by these numbers for the remainder of the Specification.\nStudies 10, 20, 30, 50, 60 and 80 were single-dose studies and plasma samples were acquired at nominal times approximate to 0, 0.25, 0.5, 1, 1.5, 2, 2.5, 3, 3.5, 4, 6, 8, 10, 12, 16, 24, 36, 48, 72 and 96 hours after the dose on day 1 of that period. Study 40 was a single treatment period multi-dose study, where participants were dosed 7 times at 24 hour intervals and plasma samples were collected at nominal times of 0, 0.25, 0.5, 1, 1.5, 2, 2.5, 3, 4, 6, 8, 10, 12, 16, 24, 144, 144.25, 144.5, 145, 145.5, 146, 146.5, 147, 148, 150, 152, 156, 160, 168, 180, 192, 216 and 240 hours after the dose on day 1. Study 70 was a two treatment period multi-dose study, where doses were given at 0, 72, 96, 120, 144 and 168 hours after the start of treatment, and plasma samples were collected at nominal times of 0, 0.25, 0.5, 1, 1.5, 2, 2.5, 3, 4, 6, 8, 10, 12, 16, 24, 36, 48, 72, 96, 120, 144, 168, 168.25, 168.5, 169, 169.5, 170, 170.5, 171, 172, 174, 176, 180, 184, 192, 204, 216 and 240 hours after the dose on day 1. Deviations between nominal sampling times and actual sample times were recorded, and the actual times were used during model development. Covariates describing fed status, formulation, sex, age, race, weight, body mass index (BMI), smoking status and study number were available for each individual.\nDoxycycline plasma concentrations were measured using validated high performance liquid chromatographic methods, with the lower limits of quantification (LLOQ) of the assays indicated in […].3. All subjects with evaluable pharmacokinetic data were included in the analysis. All studies were conducted according to the International Conference of Harmonisation (ICH) guidelines for good clinical practice, the Declaration of Helsinki on the ethical conduct of medical research, and applicable regulatory requirements. Each subject signed and dated a written informed consent before study participation.\nThe base model was developed in a step-wise manner. Pharmacokinetic models were coded using the ADVAN5 subroutines of NONMEM. Linear kinetic models with 1, 2 and 3 compartments were evaluated, with absorption models including simple first-order absorption and “transit compartment” models with up to 5 absorption transit compartments assessed. The parameter KTR (transit absorption rate) was used to describe the first-order movement through these absorption compartments. The First Order Conditional Estimation (FOCE) method was used to fit models. […]"}, "Plasmodium falciparum": {"test_system": "Plasmodium falciparum", "conditions": "cited from earlier work"}, "[4]": {"conditions": "cited from earlier work"}, "[5]": {"conditions": "cited from earlier work", "remark": "listed apart in the source"}}, "note": "Where a name gives a salt, the structure may show the parent alone. Read-outs that look alike come from different tables or passages of the source."}
{"smiles": "C[C@H]1c2cccc(O)c2C(=O)C2=C(O)[C@]3(O)C(=O)C(C(N)=O)=C(O)[C@@H](N(C)C)[C@@H]3[C@@H](O)[C@@H]21", "note": "[doxycycline monohydrate salt]", "values": [{"measurement": "release rates overall", "setting": "[1]; FIG. 5", "result": "low release rates overall"}, {"measurement": "release", "setting": "[1]; acidic conditions (FIG. 5)", "result": "releases readily"}, {"measurement": "solubility", "setting": "[2]; lower pH values (FIG. 5)", "result": "very soluble"}, {"measurement": "solubility", "setting": "[2]; pH above 3 (FIG. 5)", "result": "not very soluble"}]}
{"smiles": "C[C@H]1c2cccc(O)c2C(=O)C2=C(O)[C@]3(O)C(=O)C(C(N)=O)=C(O)[C@@H](N(C)C)[C@@H]3[C@@H](O)[C@@H]21", "note": "[doxycycline, (4S,4aR,5S,5aR,6R,12aS)-4-(dimethylamino)-3,5,10,12,12a-pentahydroxy-6-methyl-1,11-dioxo-1,4,4a,5,5a,6,11,12a-octahydrotetracene-2-carboxamide]", "values": [{"measurement": "CL, Clearance", "setting": "[3]; final model parameter estimate", "result": 4.63, "unit": "L/h/70 kg FFM"}, {"measurement": "CLP1, Intercompartmental clearance", "setting": "[3]; final model parameter estimate", "result": 11.3, "unit": "L/h/70 kg FFM"}, {"measurement": "KTR, Transit compartment rate constant", "setting": "[3]; final model parameter estimate", "result": 2, "unit": "h⁻¹"}, {"measurement": "V, Central distribution volume", "setting": "[3]; final model parameter estimate", "result": 55.2, "unit": "L/70 kg FFM"}, {"measurement": "VP1, Peripheral distribution volume", "setting": "[3]; final model parameter estimate", "result": 49.8, "unit": "L/70 kg FFM"}, {"measurement": "FTLAG2, lag on KTR (absorption) for the fed status", "setting": "[3]; final model, formulation non-specific", "result": 0.203, "unit": "h"}, {"measurement": "Fed-state decrease in relative bioavailability", "setting": "[3]; human, plasma, oral, final model parameter estimate, read-out: COVFEDF, Effect of food on relative bioavailability", "result": 10.5, "unit": "%"}, {"measurement": "female sex increase in clearance", "setting": "[3]; in vivo", "result": 14.4, "unit": "%"}, {"measurement": "fed status decrease in relative bioavailability (F)", "setting": "[3]; irrespective of formulation", "result": 10.5, "unit": "%"}, {"measurement": "activity against asexual erythrocytic forms", "setting": "Plasmodium falciparum", "result": "active"}, {"measurement": "activity against gametocytes", "setting": "Plasmodium falciparum", "result": "not against the gametocytes"}, {"measurement": "peak serum level", "setting": "[4]; 200 mg dose, at 2 hours, normal adult volunteers", "result": 2.6, "unit": "µg/mL"}, {"measurement": "serum level", "setting": "[4]; 200 mg dose, at 24 hours", "result": 1450, "unit": "ng/mL"}, {"measurement": "absorption after oral administration", "setting": "[4]; in vivo, po", "result": "virtually completely absorbed"}, {"measurement": "half-life", "setting": "[4]; in vivo", "result": "approximately 18 hours"}, {"measurement": "excretion by the kidney", "setting": "[4]; normal function (creatinine clearance about 75 mL/min)", "result": "about 40 %/72 hours"}, {"measurement": "excretion by the kidney", "setting": "[4]; severe renal insufficiency (creatinine clearance below 10 mL/min)", "result": "1-5 %/72 hours"}, {"measurement": "lipid solubility", "setting": "[5]", "result": "high degree of lipid solubility"}]}
{"smiles": "CC1c2cccc(O)c2C(=O)C2=C(O)[C@]3(O)C(=O)C(C(N)=O)=C(O)[C@@H](N(C)C)[C@@H]3[C@@H](O)[C@@H]21", "note": "(stereo partly drawn) [Doxycycline hyclate, [4S(4aR,5S,5aR,6R,12aS)]-4-(dimethylamino)-1,4,4a,5,5a,6,11,12a-octahydro-3,5,10,12,12a-pentahydroxy-6-methyl-1,11-deoxonapthtacene-2-carboxamide monohydrochloride, compound with ethyl alcohol (2:1), monohydrate]", "values": [{"measurement": "solubility", "setting": "[5]", "result": "soluble in water and in solutions of alkali hydroxides and carbonates"}]}
